According to patent US6814988B2, “Process for optimizing milk production” (Novus International, Inc., priority 1997, dated 2004):
Like-named read-outs stand apart in the source and are kept apart here.

Assays:
[1] = female, cow, in vivo
Procedure: (§1) The absorption and metabolism of 2-hydroxy-4-[methylthio]butanoic acid sold by Novus International (St. Louis, Mo. under the Alimet® was measured in four lactating dairy cows fitted with rumen and duodenal T-type cannulae (10 cm distal to the pylorus). The cows were offered a basal diet of barley-based concentrate (Table I) and alfalfa hay. The concentrate was fed at a level of 1 kg for every 2.5 kg of milk produced (Table I) and access to alfalfa hay was ad libitum. In addition, cows received 30 g HMB mixed with 2 kg ground corn grain per day for six days to allow for adaptation of the rumen microflora. Cows were then fed 90 g HMB mixed with the ground corn and were administered 600 ml chromium-EDTA (3 g Cr) (Binnerts et al., “Soluble chromium indicator measured by atomic absorption in digestion experiments” Vet. Rec. (1968) page 470) into the rumen via the rumen cannula. The HMB meal was offered to the cows for 20 minutes prior to the morning feeding and any of the remaining meal was placed in the rumen via the rumen cannula.
(§2) Blood, rumen and duodenal samples were collected at 0, 1, 3, 6, 9, 12 and 24 hours post-HMB-feeding. Blood was collected by jugular veni-puncture into 2×10 ml sterile tubes (Vacutainer Brand SST tubes for serum separation, Bectin Dickenson, Rutherford, N.J.), allowed to stand for 30 minutes in an ice bath and centrifuged at 3000×g to separate the serum from cells. Serum was divided into two fractions. The first fraction was deproteinized by adding an equal volume of acetonitrile and then centrifuging to obtain the supernatant. The deproteinized serum was then frozen (−70° C.) until analysis. A second fraction was not deproteinized but directly frozen (−70° C.). Rumen fluid (100 ml) collected from several sites within the rumen was strained through four layers of cheesecloth and subsampled. The subsample (30 ml) was acidified with 6 M HCl (0.5 ml) and frozen (−40° C.). Duodenal samples collected (100 ml) were also stored frozen (−40° C.). Rumen and duodenal samples were later thawed and centrifuged at 23 000×g, 4° C., for 20 minutes to obtain the clarified supernatant. The clarified rumen and the duodenal samples were then frozen until analysis. Serum was analyzed for methionine and rumen and duodenal samples for HMB. Chromium was measured by atomic absorption spectrophotometry in rumen and duodenal samples that were diluted with an equal volume of a calcium chloride solution to yield samples with approximately 400 ppm Ca^2+ (Williams et al., “The determination of chromic oxide in faeces samples by atomic absorption spectrophotometry” J. Agric. Sci., Vol. 59 (1962) pp. 381-385).
(§3) The slope of the line from the semilogarithmic plot is equal to the fractional rate constant (K). The rate constants were calculated by linear regression of the natural logarithm of Cr and HMB concentration verses time (Table III). Regression analysis of rumen Cr concentration was performed with data for 1 to 24 hours (excluding data for 0 hour).
(§4) Regression analysis for duodenal Cr and HMB concentration included the data for 3 to 24 hours and 3 to 12 hours, respectively. Excluding the data for 1 hour simplified the analysis by omitting the delay for the translocation of digesta from the rumen to the duodenum.

[2] = Amount of methionine hydroxy analog bypassing the rumen and available for absorption, summary of experimental evidence; type: in vivo, ruminant
From the text: Everything considered, therefore, the amount of the hydroxy analog of methionine which bypasses the rumen and is available for absorption is between about 40% and about 55%.

in vivo = details: female, cow
Procedure: as §1, §2, §3, §4

[3] = Lactation study, Alimet in close-up dry period and early lactation diets (Example 2); type: in vivo, cows
Procedure: The diets (Table IV) were formulated to include Alimet® to meet the methionine requirements as determined using existing computer modeling technology (CNCPS and DAIRYLP). The diets were balanced to meet amino acid requirements and included standard feed ingredients used in dairy rations. In the absence of added Alimet®, the control diet was predicted to be first limiting in methionine. The estimated need for methionine was approximately 9 grams per day. Alimet® was added assuming an availability to the ruminant of 20%.
This study included 10 multiparous and five primiparous cows per treatment, supplemented with Alimet® for two weeks before calving and for 12 weeks of lactation. […] At peak milk yield, Alimet-fed multiparous cows produced 7.9 kg/d more FCM than unsupplemented cows (42.0 vs 34.1 kg/d). The benefits of supplying post ruminal amino acid would appear to be greatest during the close-up dry period and early lactation.

[4] = Rumen bypass and gastrointestinal availability of HMB in rumen- and duodenum-cannulated lactating dairy cows (Example 1); details: for Chromium Concentration: 3 g Cr into rumen
Procedure: as §1, §2, §3, §4

[5] = duodenal fluid, 3 to 24 hours, cow 124
[6] = duodenal fluid, 3 to 24 hours, cow 131
[7] = duodenal fluid, 3 to 24 hours, cow 133
[8] = duodenal fluid, 3 to 24 hours, cow 138
[9] = duodenal fluid, 3 to 24 hours, mean of four cows
[10] = rumen fluid, 1 to 24 hours, cow 24
[11] = rumen fluid, 1 to 24 hours, cow 131
[12] = rumen fluid, 1 to 24 hours, cow 133
[13] = rumen fluid, 1 to 24 hours, cow 138
[14] = rumen fluid, 1 to 24 hours, mean of four cows

## CSCCC(O)C(=O)O (stereo not drawn) [HMB, DL, 2-hydroxy-4-[methylthio]butanoic acid]
[1]
  percent of the HMB dose absorbed in the omasum: 8.8%
  percent of the HMB dose bypassing the rumen fermentation: 40%
  percent of the HMB dose that disappeared (was degraded) in the rumen: 60%
  percent of the HMB that passed to the small intestine: 31.2%
  rate constant for microbial degradation of HMB within the rumen: −0.1962
  time by which rumen and duodenal HMB and serum methionine had returned to pre-dose levels: ≤ 12 h
  time of peak duodenal HMB concentration: 3 h
  time of peak ruminal HMB concentration: 1 h
  time of peak serum methionine concentration: 6 h
[1]; 0 h
  HMB Concentration: <10 µg/mL
[1]; 6 h
  increase in serum methionine above pre-dose levels at the peak concentration: 200%
[1]; 24 h
  HMB Concentration: <10 µg/mL
[2]; additional experimental evidence
  amount absorbed by the omasum: about 8.8%
[2]; experimental bypass data and field work with dairy cattle (milk response), molecular basis
  amount which by-passes the rumen: at least 40%
[2]; fed in the absence of a bypass fat, molecular basis, experimental evidence to date
  amount which bypasses the rumen and is available for absorption: at least 20%
In vivo
  bioavailability: 40%
In vivo; HMB Concentration
  concentration at 0 h: < 10000 ng/mL
  concentration at 24 h: < 10000 ng/mL
In vivo; rumen concentration of HMB
  concentration at 24 h: < 10000 ng/mL
[3]; multiparous cows at peak milk yield
  more FCM than unsupplemented cows: 7.9 kg/day
[3]; multiparous cows at peak milk yield, unsupplemented 34.1
  FCM production: 42.0 kg/day
[3]; supplemented two weeks before calving and 12 weeks of lactation
  milk protein content, higher than unsupplemented cows: not
[3]; supplemented two weeks before calving and 12 weeks of lactation, unsupplemented 3.71%
  milk fat content: 4.01%
[3]; supplemented two weeks before calving and 12 weeks of lactation, unsupplemented 29.2
  fat-corrected content (FCM) production: 33.4 kg/day
[3]; supplemented two weeks before calving and 12 weeks of lactation, unsupplemented 31.3
  milk production: 33.9 kg/day

## chromium-EDTA
[4]; duodenal fluid, 0 h, cow 124
  Chromium Concentration: 1.36 µg/mL
[4]; duodenal fluid, 0 h, cow 131
  Chromium Concentration: 0.05 µg/mL
[4]; duodenal fluid, 0 h, cow 133
  Chromium Concentration: 0.05 µg/mL
[4]; duodenal fluid, 0 h, cow 138
  Chromium Concentration: 0.02 µg/mL
[4]; [5]
  Constant, linear regression of natural logarithm of Cr concentration versus time: 3.0038
  K (fractional rate constant), Chromium: −.0705
[4]; [6]
  Constant, linear regression of natural logarithm of Cr concentration versus time: 3.5284
  K (fractional rate constant), Chromium: −.1201
[4]; [7]
  Constant, linear regression of natural logarithm of Cr concentration versus time: 3.6342
  K (fractional rate constant), Chromium: −.1173
[4]; [8]
  Constant, linear regression of natural logarithm of Cr concentration versus time: 3.7419
  K (fractional rate constant), Chromium: −.1135
[4]; [9]
  Constant, linear regression of natural logarithm of Cr concentration versus time: 3.4771
  K (fractional rate constant), Chromium; rate constant for passage of the Cr marker to the duodenum: −.1053
[4]; duodenal fluid, 3 to 24 hours, mean of four cows, listed as Cr
  K (fractional rate constant), Chromium; rate constant for passage of the Cr marker to the duodenum: −0.1053
[4]; duodenal fluid, 1 h, cow 124
  Chromium Concentration: 11.69 µg/mL
[4]; duodenal fluid, 1 h, cow 131
  Chromium Concentration: 23.80 µg/mL
[4]; duodenal fluid, 1 h, cow 133
  Chromium Concentration: 12.14 µg/mL
[4]; duodenal fluid, 1 h, cow 138
  Chromium Concentration: 17.98 µg/mL
[4]; duodenal fluid, 3 h, cow 124
  Chromium Concentration: 18.30 µg/mL
[4]; duodenal fluid, 3 h, cow 131
  Chromium Concentration: 24.55 µg/mL
[4]; duodenal fluid, 3 h, cow 133
  Chromium Concentration: 25.41 µg/mL
[4]; duodenal fluid, 3 h, cow 138
  Chromium Concentration: 27.23 µg/mL
[4]; duodenal fluid, 6 h, cow 124
  Chromium Concentration: 11.99 µg/mL
[4]; duodenal fluid, 6 h, cow 131
  Chromium Concentration: 17.86 µg/mL
[4]; duodenal fluid, 6 h, cow 133
  Chromium Concentration: 18.42 µg/mL
[4]; duodenal fluid, 6 h, cow 138
  Chromium Concentration: 23.24 µg/mL
[4]; duodenal fluid, 9 h, cow 124
  Chromium Concentration: 11.00 µg/mL
[4]; duodenal fluid, 9 h, cow 131
  Chromium Concentration: 12.16 µg/mL
[4]; duodenal fluid, 9 h, cow 133
  Chromium Concentration: 16.36 µg/mL
[4]; duodenal fluid, 9 h, cow 138
  Chromium Concentration: 19.26 µg/mL
[4]; duodenal fluid, 12 h, cow 124
  Chromium Concentration: 7.89 µg/mL
[4]; duodenal fluid, 12 h, cow 131
  Chromium Concentration: 6.39 µg/mL
[4]; duodenal fluid, 12 h, cow 133
  Chromium Concentration: 7.89 µg/mL
[4]; duodenal fluid, 12 h, cow 138
  Chromium Concentration: 8.39 µg/mL
[4]; duodenal fluid, 24 h, cow 124
  Chromium Concentration: 3.88 µg/mL
[4]; duodenal fluid, 24 h, cow 131
  Chromium Concentration: 2.06 µg/mL
[4]; duodenal fluid, 24 h, cow 133
  Chromium Concentration: 2.29 µg/mL
[4]; duodenal fluid, 24 h, cow 138
  Chromium Concentration: 2.85 µg/mL
[4]; rumen fluid, 0 h, cow 124
  Chromium Concentration: 0.04 µg/mL
[4]; rumen fluid, 0 h, cow 131
  Chromium Concentration: 0.07 µg/mL
[4]; rumen fluid, 0 h, cow 133
  Chromium Concentration: 0.01 µg/mL
[4]; rumen fluid, 0 h, cow 138
  Chromium Concentration: 0.02 µg/mL
[4]; [10]
  Constant, linear regression of natural logarithm of Cr concentration versus time: 3.4702
  K (fractional rate constant), Chromium: −.0940
[4]; [11]
  Constant, linear regression of natural logarithm of Cr concentration versus time: 2.7330
  K (fractional rate constant), Chromium: −.1576
[4]; [12]
  Constant, linear regression of natural logarithm of Cr concentration versus time: 3.7310
  K (fractional rate constant), Chromium: −.1302
[4]; [13]
  Constant, linear regression of natural logarithm of Cr concentration versus time: 3.9905
  K (fractional rate constant), Chromium: −.1411
[4]; [14]
  Constant, linear regression of natural logarithm of Cr concentration versus time: 3.7312
  K (fractional rate constant), Chromium; rate of passage of the liquid marker from the rumen: −.1307
[4]; rumen fluid, 1 to 24 hours, mean of four cows, listed as Cr
  K (fractional rate constant), Chromium; rate of passage of the liquid marker from the rumen: −0.1307
[4]; rumen fluid, 1 h, cow 124
  Chromium Concentration: 31.83 µg/mL
[4]; rumen fluid, 1 h, cow 131
  Chromium Concentration: 36.27 µg/mL
[4]; rumen fluid, 1 h, cow 133
  Chromium Concentration: 40.44 µg/mL
[4]; rumen fluid, 1 h, cow 138
  Chromium Concentration: 45.51 µg/mL
[4]; rumen fluid, 3 h, cow 124
  Chromium Concentration: 23.77 µg/mL
[4]; rumen fluid, 3 h, cow 131
  Chromium Concentration: 29.11 µg/mL
[4]; rumen fluid, 3 h, cow 133
  Chromium Concentration: 34.52 µg/mL
[4]; rumen fluid, 3 h, cow 138
  Chromium Concentration: 37.05 µg/mL
[4]; rumen fluid, 6 h, cow 124
  Chromium Concentration: 19.29 µg/mL
[4]; rumen fluid, 6 h, cow 131
  Chromium Concentration: 18.09 µg/mL
[4]; rumen fluid, 6 h, cow 133
  Chromium Concentration: 16.62 µg/mL
[4]; rumen fluid, 6 h, cow 138
  Chromium Concentration: 27.94 µg/mL
[4]; rumen fluid, 9 h, cow 124
  Chromium Concentration: 12.93 µg/mL
[4]; rumen fluid, 9 h, cow 131
  Chromium Concentration: 8.89 µg/mL
[4]; rumen fluid, 9 h, cow 133
  Chromium Concentration: 10.79 µg/mL
[4]; rumen fluid, 9 h, cow 138
  Chromium Concentration: 13.89 µg/mL
[4]; rumen fluid, 12 h, cow 124
  Chromium Concentration: 9.16 µg/mL
[4]; rumen fluid, 12 h, cow 131
  Chromium Concentration: 5.04 µg/mL
[4]; rumen fluid, 12 h, cow 133
  Chromium Concentration: 7.86 µg/mL
[4]; rumen fluid, 12 h, cow 138
  Chromium Concentration: 8.28 µg/mL
[4]; rumen fluid, 24 h, cow 124
  Chromium Concentration: 3.62 µg/mL
[4]; rumen fluid, 24 h, cow 131
  Chromium Concentration: 1.07 µg/mL
[4]; rumen fluid, 24 h, cow 133
  Chromium Concentration: 2.08 µg/mL
[4]; rumen fluid, 24 h, cow 138
  Chromium Concentration: 1.97 µg/mL
